1 compound from article PMC10764104, “Discovery of Molecular Glue Degraders via Isogenic Morphological Profiling” (ACS Chemical Biology, 2023) can be followed below.

The target of the experiment is T1, GSPT2 G566N (Homo sapiens, UniProt Q8IYD1, G566N).
T1 construct: expressed in transfected cells; host or cells: RKO cells, lentiviral transduction, puromycin-selected
Nature of the experiment: Western blot (HA-tag) of G-loop mutant GSPT2 in RKO cells. It counts as cell-based. As to conditions: RKO cells stably overexpressing HA-GSPT2 G566N, 16 h; 10 μM FL2-14 or 10 nM CC-885. On the procedure:
Figure 3 FL2-14 is a selective GSPT2 molecular glue degrader. (A) Structure of FL2-14 comprising fluorosulfate scaffold FL2 (black) and tail group modification 14 (blue). (B) DMSO-normalized quantitative proteomics after 16 h of treatment with FL2-14 (10 μM) in RKO WT (n = 2). […] (C) Structural alignment of AlphaFold models of GSPT1 (AF-P15170-F1-model_v4 in gray) and GSPT2 (AF-Q8IYD1-F1-model_v4 in blue). (D) Validation of GSPT2 degradation by FL2-14. […] (E) Dose–response of FL2-14 in RKO and HEK293T cells. Cells were treated with the FL2-14 (0 to 10 μM) for 16 h. (F) Degradation of GSPT2^WT or GSPT2^G566N.
Prediction of the G‐loop degron sequence in GSPT2
We first compiled all CRBN degron sequences with known crystal structures (Table S 2). We subsequently discarded 6UML as its degron sequence included an alanine instead of the typical glycine observed in the seventh amino acid residue of other degron sequences, leaving six degron sequences. We then scanned the latest AlphaFold structure of GSPT215 for a potential stretch of 10 amino acids that would align best with each degron sequence. We yielded the same stretch of amino acid residues from position 560 to 569 ([…]) and RMSD values under 0.5 Å.
Table S 2: List of crystal structures used for the computational prediction of the G‐loop degron sequence […]
PDB code Resolution (Å) Chain Segment Sequence Reference
Analysis of G‐loop mutation […]
On the technique in general: Immunoblotting shows a protein as a band on a membrane.

T1 sequence (Q8IYD1 whole entry G566N): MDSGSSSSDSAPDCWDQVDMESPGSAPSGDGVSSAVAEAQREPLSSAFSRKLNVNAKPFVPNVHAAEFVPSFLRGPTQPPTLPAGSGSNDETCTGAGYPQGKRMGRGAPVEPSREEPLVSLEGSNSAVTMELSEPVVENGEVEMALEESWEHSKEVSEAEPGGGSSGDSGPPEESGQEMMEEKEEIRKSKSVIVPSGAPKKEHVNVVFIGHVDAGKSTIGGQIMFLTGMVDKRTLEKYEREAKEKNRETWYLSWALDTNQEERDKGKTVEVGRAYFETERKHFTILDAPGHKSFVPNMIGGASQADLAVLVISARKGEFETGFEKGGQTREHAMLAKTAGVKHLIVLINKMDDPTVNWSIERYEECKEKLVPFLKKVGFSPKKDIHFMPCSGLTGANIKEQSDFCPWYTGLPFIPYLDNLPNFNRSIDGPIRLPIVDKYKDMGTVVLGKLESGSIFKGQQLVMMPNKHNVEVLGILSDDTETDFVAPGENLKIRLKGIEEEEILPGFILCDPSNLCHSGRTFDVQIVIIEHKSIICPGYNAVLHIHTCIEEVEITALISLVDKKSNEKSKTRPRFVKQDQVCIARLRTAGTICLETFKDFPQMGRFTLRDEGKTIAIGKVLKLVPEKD

For the compound `CN(Cc1ncc(C2CC2)o1)S(=O)(=O)Oc1ccc(Nc2ccc3c(c2)C(=O)N(C2CCC(=O)NC2=O)C3=O)cc1` (stereo not shown) [FL2-14], the “degradation of HA-tagged GSPT2 G566N (glycine of G-loop replaced by asparagine)” value is recorded as “rescued degradation of GSPT2”.
